Read-outs that look alike come from different tables or passages of the source.

Holding throughout (assay type): biochemical
One assay has as its target T1, Csk (Homo sapiens, UniProt P41240).
T1 construct: GST (glutathione-S-transferase) (N); made in house; host or cells: E. coli (pGEX vector)
Briefly: Csk tyrosine kinase activity, poly E4Y and 32P-ATP. The procedure, abridged:
(§1)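 Recombinant GST-Csk (E. coli) or baculovirus-expressed human Src assayed on poly E4Y in 0.15 M EPPS-NaOH pH 8.0, 6 mM MgCl2, 0.2 mM γ32P-ATP, 10% glycerol, 0.1% Triton X-100. Read-out is 32P incorporation into poly E4Y; for ATP variation (0–250 μM), poly E4Y held at 150 μg/ml.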

The target of another assay is FGF receptor (FGFr) (Homo sapiens, UniProt P11362). Briefly: FGFr tyrosine kinase activity, poly E4Y and 32P-ATP. As for the experimental part:
Recombinant human Src was expressed using the baculovirus-insect cell system and purified as published (Budde et al., 1993 and 2000). Recombinant Csk and the FGF receptor (FGFr) were expressed as glutathione-S-transferase fusion proteins using the pGEX expression vector and E. coli, and purified as described (Sun & Budde, 1995). The tyrosine kinase activity of Src, Csk and FGFr was determined using poly E4Y and ^32P-ATP. Briefly, enzymes were assayed in a reaction mixture consisting of 0.15 M EPPS-NaOH (pH 8.0) with 6 mM MgCl2, 0.2 mM γ^32P-ATP (0.2-0.4 mCi/μmol), 10% glycerol, 0.1% Triton X-100, and poly E4Y. Poly E4Y is a synthetic peptide whose phosphorylation is measured in this assay by the addition of the radioactively labeled phosphate from the ATP (Budde et al., 1995). […] When ATP was varied (0, 50, 100 and 250 μM), poly E4Y was kept constant at 150 μg/ml. […] From this screening, the thienopyrimidine-based scaffold was identified as one of the chemical structures to pursue. […] These analogues were screened against Src, Csk and FGFr (Table 2, Table 3, and Table 4).

Another assay deals with T2, Recombinant human Src (Homo sapiens, UniProt P12931).
T2 construct: made in house; host or cells: baculovirus-insect cell system
The experiment in a line: Src tyrosine kinase activity, poly E4Y and 32P-ATP. The procedure, abridged:
as §1

The target of the next assay is T3, N12 neuronal Src variant (Homo sapiens, UniProt P12931).
T3 construct: made in house
Briefly: Testing against neuronal Src variant N12. Particulars: Table 5. On the procedure: (§2) The tyrosine kinase activity of Src, Csk and FGFr was determined using poly E4Y and ^32P-ATP. Briefly, enzymes were assayed in a reaction mixture consisting of 0.15 M EPPS-NaOH (pH 8.0) with 6 mM MgCl2, 0.2 mM γ^32P-ATP (0.2-0.4 mCi/μmol), 10% glycerol, 0.1% Triton X-100, and poly E4Y. Poly E4Y is a synthetic peptide whose phosphorylation is measured in this assay by the addition of the radioactively labeled phosphate from the ATP (Budde et al., 1995). […] When ATP was varied (0, 50, 100 and 250 μM), poly E4Y was kept constant at 150 μg/ml.
(§3) Thienopyrimidine-based compounds were also tested against neuronal Src variants (Table 5).

For the next assay, the target named is T4, N23 neuronal Src variant (Homo sapiens, UniProt P12931).
T4 construct: made in house
The experiment in a line: Testing against neuronal Src variant N23. Particulars: Table 5. As for the experimental part: as §2, §3

Where [1] appears, read: screening assay, 50 μg/ml poly E4Y, 0.2 mM 32P-ATP.
The mark [2] stands for this setting: Table 4, NI = no inhibition upto 50 ug/mL.
The mark [3] stands for this setting: Table 2, read-out: Src IC50 (especially good inhibitors of Src).
Setting [4] is: read-out: IC50 (preferred compounds for treatment of Src family-related disease).

Sequence of FGF receptor (FGFr) (P11362 398-822): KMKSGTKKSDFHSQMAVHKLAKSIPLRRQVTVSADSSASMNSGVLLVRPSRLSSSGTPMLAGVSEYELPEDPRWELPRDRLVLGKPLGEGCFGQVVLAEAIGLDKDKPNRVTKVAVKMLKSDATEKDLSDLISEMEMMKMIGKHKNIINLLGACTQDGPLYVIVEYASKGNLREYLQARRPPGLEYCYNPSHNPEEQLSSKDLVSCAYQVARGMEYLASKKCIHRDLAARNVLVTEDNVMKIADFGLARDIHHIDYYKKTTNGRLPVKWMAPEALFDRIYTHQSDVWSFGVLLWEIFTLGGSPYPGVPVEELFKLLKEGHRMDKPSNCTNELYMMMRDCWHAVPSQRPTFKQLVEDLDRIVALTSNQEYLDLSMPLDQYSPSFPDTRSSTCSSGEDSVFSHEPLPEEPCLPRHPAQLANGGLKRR
T1 sequence (P41240 whole entry, species assumed): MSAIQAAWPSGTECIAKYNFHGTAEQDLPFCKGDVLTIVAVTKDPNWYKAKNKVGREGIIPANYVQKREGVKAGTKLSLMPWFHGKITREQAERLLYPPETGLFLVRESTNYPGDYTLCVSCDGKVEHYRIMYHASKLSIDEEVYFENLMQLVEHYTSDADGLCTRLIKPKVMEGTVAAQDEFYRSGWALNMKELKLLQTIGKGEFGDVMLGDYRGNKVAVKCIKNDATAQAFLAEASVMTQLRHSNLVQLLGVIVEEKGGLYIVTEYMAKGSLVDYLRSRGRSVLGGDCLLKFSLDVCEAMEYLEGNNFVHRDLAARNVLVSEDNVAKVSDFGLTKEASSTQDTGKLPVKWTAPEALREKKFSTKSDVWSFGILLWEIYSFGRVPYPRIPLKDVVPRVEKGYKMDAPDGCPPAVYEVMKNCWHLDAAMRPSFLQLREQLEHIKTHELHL

Regarding `Cc1csc2c(NN=Cc3ccc(C(F)(F)F)cc3)ncnc12` [Compound 9, 4-Trifluoromethylbenzaldehyde(7-methylthieno[3,2-d]pyrimidin-4-yl)hydrazone], the “Csk IC50” value at Csk (setting [1]) is listed as “NI (NI = no inhibition up to 50 ug/mL)”. For the same molecule, the “FGFr IC50” value at FGF receptor (FGFr) (setting [1]) is given as “NI (NI = no inhibition up to 50 ug/mL)”.
One may read the IC50 as the concentration needed to halve the response being measured. With `CCO.Cc1csc2c(NN=Cc3cccnc3)ncnc12.Cc1csc2c(NN=Cc3cccnc3)ncnc12` [Compound 499], the “Csk IC50” value at Csk (setting [2]) is listed as “NI (NI = no inhibition upto 50 ug/mL)”. Also, the “FGFr IC50” value on FGF receptor (FGFr) (setting [2]) is reported as “NI (NI = no inhibition upto 50 ug/mL)”. In addition, the IC50 on Recombinant human Src (Table 4, read-out: Src IC50) worked out at 8600 nM.
Consider `CCO.Cc1csc2c(NN=Cc3cccs3)ncnc12.Cc1csc2c(NN=Cc3cccs3)ncnc12` [Compound 501], for which the “Csk IC50” value on Csk (setting [2]) is reported as “NI (NI = no inhibition upto 50 ug/mL)”. Further, the “FGFr IC50” value on FGF receptor (FGFr) (setting [2]) is recorded as “NI (NI = no inhibition upto 50 ug/mL)”. The IC50 at Recombinant human Src (Table 4, read-out: Src IC50) was determined as 10700 nM.
As to “1-Hydroxy-1-methyl-1,1-di-[3-hydroxy-4-methoxybenzaldehyde(7-methylthieno[3,2-d]pyrimidin-4-yl)hydrazone]methane [Compound 502]”, the “Csk IC50” value on Csk (setting [2]) was “NI (NI = no inhibition upto 50 ug/mL)”. The “FGFr IC50” value at FGF receptor (FGFr) (setting [2]) was “NI (NI = no inhibition upto 50 ug/mL)”. Also, the half-inhibitory concentration (IC50) on Recombinant human Src (Table 4, read-out: Src IC50) is 8700 nM.
For the molecule `Cc1csc2c(NN=Cc3cccc(Br)c3)ncnc12` [Compound 57, 3-Bromobenzaldehyde(7-methylthieno[3,2-d]pyrimidin-4-yl)hydrazone], on Csk (setting [1]), the “Csk IC50” value is reported as “NI (NI = no inhibition up to 50 ug/mL)”. Besides, the “FGFr IC50” value on FGF receptor (FGFr) (setting [1]) was “NI (NI = no inhibition up to 50 ug/mL)”.
With `COc1ccc(C=NNc2ncnc3c(C)csc23)cc1O` [Compound 51, 3-Hydroxy-4-methoxybenzaldehyde(7-methylthieno[3,2-d]pyrimidin-4-yl)hydrazone], the IC50 against N12 neuronal Src variant is 1750 nM; against N23 neuronal Src variant, 510 nM; on Recombinant human Src (setting [3]), at most 2000 nM; on Recombinant human Src (Table 5, N6 = Src, read-out: N6(Src) IC50), 510 nM; on Recombinant human Src (setting [4]), under 2000 nM.
In the case of “1-Hydroxy-1-methyl-1,1-di-[4-carboxybenzaldehyde(7-methylthieno[3,2-d]pyrimidin-4-yl)hydrazone]methane [Compound 500]”, the IC50 was determined as 57000 nM against Csk (setting [2]) and 5300 nM at Recombinant human Src (Table 4, read-out: Src IC50). In addition, on FGF receptor (FGFr) (setting [2]), the “FGFr IC50” value is reported as “NI (NI = no inhibition upto 50 ug/mL)”.
As for `C(=NNc1ncnc2cc(-c3ccsc3)sc12)c1cccnc1` [Compound 223, 3-Pyridinecarboxaldehyde(6-(3-thienyl)thieno[3,2-d]pyrimidin-4-yl)hydrazone], on Csk (setting [1]), the “Csk IC50” value is “NI (NI = no inhibition up to 50 ug/mL)”. The “FGFr IC50” value at FGF receptor (FGFr) (setting [1]) is recorded as “NI (NI = no inhibition up to 50 ug/mL)”.
Regarding `COc1ccc(-c2sc3c(NN=Cc4ccc(OC)c(O)c4)ncnc3c2C)cc1` [Compound 425, 3-Hydroxy-4-methoxybenzaldehyde(6-(4-methoxyphenyl)-7-methylthieno[3,2-d]pyrimidin-4-yl)hydrazone], the 50% inhibitory concentration (IC50) against Csk (setting [1]) is over 119000 nM; at Recombinant human Src (setting [3]), at most 2000 nM; on Recombinant human Src (setting [4]), under 2000 nM.
For the molecule `CS(=O)(=O)c1ccc(-c2cc3ncnc(NN=Cc4cccnc4)c3s2)cc1` [Compound 290, 3-Pyridinecarboxaldehyde(6-(4-methanesulphonylphenyl)thieno-[3,2-d]pyrimidin-4-yl)hydrazone], the IC50 against Csk (setting [1]) is over 122000 nM; on Recombinant human Src (setting [3]), at most 2000 nM; on Recombinant human Src (setting [4]), under 2000 nM.
As to `COc1ccc(C=NNc2ncnc3c(C)c(C(Cc4ccccc4)c4ccccc4)sc23)cc1O` (centres unmarked) [Compound 475, 3-Hydroxy-4-methoxybenzaldehyde(6-(1-benzyl-1-phenyl)methyl-7-methylthieno[3,2-d]pyrimidin-4-yl)hydrazone], the IC50 against Csk (poly E4Y and 32P-ATP) is over 101000 nM; on Recombinant human Src (setting [3]), at most 2000 nM; at Recombinant human Src (setting [4]) it was under 2000 nM.
For the molecule `Cc1c(-c2ccsc2)sc2c(NN=Cc3cccnc3)ncnc12` [Compound 379, 3-Pyridinecarboxaldehyde(7-methyl-6-(3-thienyl)thieno[3,2-d]pyrimidin-4-yl)hydrazone], the IC50 against Csk (setting [1]) was over 142000 nM; at Recombinant human Src (setting [3]), at most 2000 nM; on Recombinant human Src (setting [4]), under 2000 nM.
Consider `CCCc1csc2c(NN=Cc3cccnc3)ncnc12` [Compound 264, 3-Pyridinecarboxaldehyde(7-propylthieno[3,2-d]pyrimidin-4-yl)hydrazone], for which the 50% inhibitory concentration (IC50) at Csk (setting [1]) was over 168000 nM; at Recombinant human Src (setting [3]) it was at most 2000 nM; on Recombinant human Src (setting [4]), under 2000 nM.
On to `Cc1csc2c(NN=Cc3ccncc3)ncnc12` [Compound 16, 4-Pyridinecarboxaldehyde(7-methylthieno[3,2-d]pyrimidin-4-yl)hydrazone], for which the IC50 at Csk (setting [1]) is over 186000 nM; on Recombinant human Src (setting [3]) it was at most 2000 nM; at Recombinant human Src (setting [4]), under 2000 nM.
In the case of `Clc1ccccc1-c1cc2ncnc(NN=Cc3cccs3)c2s1` [Compound 320, 2-Thiophenecarboxaldehyde(6-(2-chlorophenyl)thieno[3,2-d]pyrimidin-4-yl)hydrazone], the IC50 against Csk (setting [1]) was over 135000 nM; on Recombinant human Src (setting [3]), at most 2000 nM; on Recombinant human Src (setting [4]) it was under 2000 nM.
Consider `Cc1c(-c2ccc(CO)cc2)sc2c(NN=Cc3cccs3)ncnc12` [Compound 438, 2-Thiophenecarboxaldehyde(6-(4-hydroxymethylphenyl)-7-methylthieno[3,2-d]pyrimidin-4-yl)hydrazone], for which the IC50 at Csk (setting [1]) is over 131000 nM; at Recombinant human Src (setting [3]), at most 2000 nM; on Recombinant human Src (setting [4]), under 2000 nM.
The matching figures for `COc1cccc(-c2sc3c(NN=Cc4ccc(OC)c(O)c4)ncnc3c2C)c1` [Compound 429, 3-Hydroxy-4-methoxybenzaldehyde(6-(3-methoxyphenyl)-7-methylthieno[3,2-d]pyrimidin-4-yl)hydrazone]: over 119000 nM, at most 2000 nM and under 2000 nM.
As for `Cc1c(-c2ccc(CO)cc2)sc2c(NN=Cc3cccnc3)ncnc12` [Compound 436, 3-Pyridinecarboxaldehyde(6-(4-hydroxymethylphenyl)-7-methylthieno[3,2-d]pyrimidin-4-yl)hydrazone], the concentration for half-maximal inhibition (IC50) against Csk (setting [1]) is over 133000 nM; on Recombinant human Src (setting [3]), at most 2000 nM; on Recombinant human Src (setting [4]), under 2000 nM.
For the molecule `COc1ccc(C=NNc2ncnc3c(C)csc23)cc1` [Compound 14, 4-Methoxybenzaldehyde(7-methylthieno[3,2-d]pyrimidin-4-yl)hydrazone], the IC50 is over 168000 nM against Csk (setting [1]), at most 2000 nM on Recombinant human Src (setting [3]) and under 2000 nM on Recombinant human Src (setting [4]).
For the molecule `Cc1ccc(C=NNc2ncnc3c(C)csc23)s1` [Compound 120, 5-Methyl-2-thiophenecarboxaldehyde(7-methylthieno[3,2-d]pyrimidin-4-yl)hydrazone], the IC50 was over 173000 nM against Csk (setting [1]), at most 2000 nM at Recombinant human Src (setting [3]) and under 2000 nM on Recombinant human Src (setting [4]).
On to `COc1ccc(C=NNc2ncnc3cc(I)sc23)cc1O` [Compound 397, 3-Hydroxy-4-Methoxybenzaldehyde(6-iodothieno[3,2-d]pyrimidin-4-yl)hydrazone], for which the IC50 against Csk (setting [1]) was over 117000 nM; at Recombinant human Src (setting [3]), at most 2000 nM; on Recombinant human Src (setting [4]), under 2000 nM.
Turning to `CCOc1cccc(C=NNc2ncnc3c(C)csc23)c1` [Compound 138, 3-Ethoxybenzaldehyde(7-methylthieno[3,2-d]pyrimidin-4-yl)hydrazone], the figures for the IC50 against Csk (setting [1]), at Recombinant human Src (setting [3]) and on Recombinant human Src (setting [4]) were over 160000 nM, at most 2000 nM and under 2000 nM, respectively.
Consider `Cc1csc2c(NN=Cc3cccc(Cl)c3)ncnc12` [Compound 19, 3-Chlorobenzaldehyde(7-methylthieno[3,2-d]pyrimidin-4-yl)hydrazone], for which the figures for the IC50 on Csk (setting [1]), on Recombinant human Src (setting [3]) and at Recombinant human Src (setting [4]) were over 165000 nM, at most 2000 nM and under 2000 nM, respectively.
The like results for `COc1cc(C=NNc2ncnc3c(C)csc23)cc(OC)c1` [Compound 18, 3,5-Dimethoxybenzaldehyde(7-methylthieno[3,2-d]pyrimidin-4-yl)hydrazone] were, in that order, over 152000 nM, at most 2000 nM and under 2000 nM.
